In patent US4282244A, “Optical isomers of 4-amino-N-(1-cyclohexyl-3-pyrrolidinyl)-N-methylbenzamide” (A. H. Robins Company, Inc., priority 1980, dated 1981):
Structures can show the parent of a compound that is named as a salt.

How the values were obtained:
catalepsy = assay: cataleptic effects (Tedeschi et al.); assay type: in vivo, rat
Description: (§1) The procedure used for determing cataleptic effects of the fumarate salts was based on that of Tedeschi et al., Arch. Int. Pharmacodyn.

[1] = cataleptic effects (Tedeschi et al.); assay type: in vivo, rat; settings: in vivo, rat, expressed as free base; for TD50: footnote c, read-out: Neurotoxic dose level evidenced by seizures in test animals; for NOAEL: fumarate salt
Description: as §1

[2] = acute toxicity (LD50), rat; assay type: in vivo; settings: in vivo, fumarate salt, expressed as free base, read-out: LD50 (95% Confidence Limits)
Experimental: (§2) The acute toxicities of the ±-racemate, the (+)-isomer and the (-)-isomer were conducted with the fumarate salts and probit analysis (Finney, D. J., Statistical Methods in Biological Assay, Hafner Pub. Co., N.Y., 2nd. Ed., 1964) was employed for the statistical treatment of the mortality data.

[3] = acute toxicity (LD50), mouse; assay type: in vivo; settings: in vivo, fumarate salt, expressed as free base, read-out: LD50 (95% Confidence Limits)
Experimental: as §2

[4] = tested on: Chlorpromazine-Induced Catalepsy; assay: Effects on Chlorpromazine-Induced Catalepsy; assay type: in vivo, rat; settings: Chlorpromazine 4 mg/kg IP, then saline IP after one hour
Experimental: (§3) (+)-4-Amino-N-(1-cyclohexyl-3-pyrrolidinyl)-N-methylbenzamide is useful in reducing the cataleptic side effects of known therapeutically effective drugs such as chlorpromazine [2-chloro-10-(3-dimethylaminopropyl)phenothiazine] and metoclopramide (N-diethylaminoethyl 2-methoxy-4-amino-5-chlorophenylcarboxamide). The effectiveness is shown in Tables IV and V. In each test the rat was administered a 100% effective cataleptic dose of the test drug followed one hour later by an effective dose of (+)-4-amino-N-(1-cyclohexyl-3-pyrrolidinyl)-N-methylbenzamide.

[5] = tested on: Metoclopramide-Induced Catalepsy; assay: Effects on Metoclopramide-Induced Catalepsy; assay type: in vivo, rat; settings: Metoclopramide 40 mg/kg IP, then saline IP after one hour
Experimental: as §3

## CN(C(=O)c1ccc(N)cc1)C1CCN(C2CCCCC2)C1 (racemic) [± racemate, 4-amino-N-(1-cyclohexyl-3-pyrrolidinyl)-N-methylbenzamide]
catalepsy
  cataleptic properties: notable absence of cataleptic properties
[1]; IP
  TD50: 100 mg/kg
  NOAEL: 100 mg/kg
[1]; PO
  NOAEL: 200 mg/kg
[2]; ip, I.P.
  LD50: 111 mg/kg
[2]; po, P.O.
  LD50: 305 mg/kg
[3]; ip, I.P.
  LD50: 90.2 mg/kg
[3]; po, P.O.
  LD50: 181 mg/kg

## CN(C(=O)c1ccc(N)cc1)C1CCN(C2CCCCC2)C1 (single isomer, unassigned; (-)) [(-)-isomer, (-)-4-Amino-N-(1-cyclohexyl-3-pyrrolidinyl)-N-methyl benzamide Fumarate]
[1]; IP
  TD50: 100 mg/kg
[2]; ip, I.P.
  LD50: 116 mg/kg
[2]; po, P.O.
  LD50: 410 mg/kg
[3]; ip, I.P.
  LD50: 103 mg/kg
[3]; po, P.O.
  LD50: 241 mg/kg

## CN(C)CCCN1c2ccccc2Sc2ccc(Cl)cc21 [Chlorpromazine, 2-chloro-10-(3-dimethylaminopropyl)phenothiazine, reference compound]
[4]; 0.5 h after initial treatment
  Percent of Rats Cataleptic: 100%
[4]; 1.0 h after initial treatment
  Percent of Rats Cataleptic: 100%
[4]; 1.5 h after initial treatment
  Percent of Rats Cataleptic: 100%
[4]; 2.0 h after initial treatment
  Percent of Rats Cataleptic: 100%
[4]; 3.0 h after initial treatment
  Percent of Rats Cataleptic: 100%
[4]; 4.0 h after initial treatment
  Percent of Rats Cataleptic: 100%
[4]; 5.0 h after initial treatment
  Percent of Rats Cataleptic: 100%
[4]; 6.0 h after initial treatment
  Percent of Rats Cataleptic: 100%

## CCN(CC)CCNC(=O)c1cc(Cl)c(N)cc1OC [Metoclopramide, N-diethylaminoethyl 2-methoxy-4-amino-5-chlorophenylcarboxamide, reference compound]
[5]; 0.5 h after initial treatment
  Percent of Rats Cataleptic: 100%
[5]; 1.0 h after initial treatment
  Percent of Rats Cataleptic: 100%
[5]; 1.5 h after initial treatment
  Percent of Rats Cataleptic: 100%
[5]; 2.0 h after initial treatment
  Percent of Rats Cataleptic: 100%
[5]; 3.0 h after initial treatment
  Percent of Rats Cataleptic: 100%
[5]; 4.0 h after initial treatment
  Percent of Rats Cataleptic: 100%
[5]; 5.0 h after initial treatment
  Percent of Rats Cataleptic: 100%
[5]; 6.0 h after initial treatment
  Percent of Rats Cataleptic: 100%
